Test results published in patent US7060657B2, “Combinations of cyclohexanedione oxime herbicides and safeners” (Bayer CropScience GmbH, priority 2002, dated 2006).

How the values were obtained:
Assay type in all cases: in vivo
[1] = tested on: Hordeum vulgare (summer barley); assay: Post-emergence field trials, selectivity in barley (Examples 2-4)
Method: (§1) The numbers in the columns refer to the percentage damage to the crop or weed.
(§2) Winter wheat was grown outdoors on plots under natural outdoor conditions, and seeds of typical harmful plants were laid out. Treatment with the herbicide (A), the safener (B) and the herbicide-safener combination (A)+(B) was carried out after the harmful plants had emerged and the wheat was in the growth stage between 3 and 5 leaves. The effect of the composition was assessed 28 days after treatment by scoring visually in comparison with untreated controls.
(§3) Field trials were carried out according to the above Example 1 but using the crops barley and durum wheat and applying a mixture of clethodim and mefenpyr-diethyl.
(§4) Field trials were carried out according to the above Example 2 and applying a mixture of clethodim and fenoxaprop-P-ethyl plus mefenpyr-diethyl.
(§5) Field trials were carried out according to the above Example 2 and applying a mixture of tepraloxydim and mefenpyr-diethyl, or tepraloxydim and fenoxaprop-P-ethyl plus mefenpyr-diethyl.

[2] = tested on: Triticum durum desf. (durum wheat); assay: Post-emergence field trials, selectivity in durum wheat (Examples 2-4)
Method: as §1, §2, §3, §4, §5

Avena fatua = assay: Post-emergence field trial on weeds (Example 5); details: 3-5 leaf growth stage, 21 days after treatment
Method: as §2, with “The numbers in the columns refer to the percentage damage to the crop or weed. Winter” for “Winter”, “controls. Field trials were carried out according to the above Example 1 and applying a mixture of cycloxydim and fenoxaprop-P-ethyl+mefenpyr-diethyl to winter wheat and the weed Avena fatua at the 3–5 leaf growth stage. Assessment was 21 days after treatment.” for “controls.”

[3] = tested on: Triticum aestivum (winter wheat); assay: Post-emergence field trial on winter wheat (Example 5); details: 3-5 leaf growth stage, 21 days after treatment
Method: as §2, with “The numbers in the columns refer to the percentage damage to the crop or weed. Winter” for “Winter”, “controls. Field trials were carried out according to the above Example 1 and applying a mixture of cycloxydim and fenoxaprop-P-ethyl+mefenpyr-diethyl to winter wheat and the weed Avena fatua at the 3–5 leaf growth stage. Assessment was 21 days after treatment.” for “controls.”

Alopecurus myosuroides = assay: Post-emergence field trial, effect on weeds (Example 1); details: 28 days after treatment
Method: as §1
(§6) Post-Emergence Effect on Weeds and Selectivity in Winter Wheat (Field Trials)
as §2
(§7) The percentage control of the weed species are shown in comparison with the expected values given in parentheses.

Phalaris minor = assay: as above; details: 28 days after treatment
Method: as §1, §6, §2, §7

[4] = tested on: Triticum aestivum (winter wheat); assay: Post-emergence field trial, selectivity in winter wheat (Example 1); details: 28 days after treatment
Method: as §1, §6, §2

In the case of CCSC(C)CC1CC(=O)C(/C(CC)=N/OC/C=C/Cl)=C(O)C1 (racemic) [(A4), (±)-2-[(E)-1-[(E)-3-chloroallyloxyimino]propyl]-5-[2-(ethylthio)propyl]-3-hydroxycyclohex-2-enone], the “Phytotox (%) on HORVS” value ([1]; 7.5 g ai/ha) is reported as 51%, the “Phytotox (%) on HORVS” value ([1]; 15 g ai/ha) is reported as 67% and the “Phytotox (%) on TRZDU” value ([2]; 7.5 g ai/ha) is reported as 32%. The “Phytotox (%) on TRZDU” value ([2]; 15 g ai/ha) was 56%.
In the case of CCC(=NOC/C=C/Cl)C1=C(O)CC(C2CCOCC2)CC1=O (racemic) [(A7), (EZ)-(RS)-2-{1-[(2E)-3-chloroallyloxyimino]propyl}-3-hydroxy-5-perhydropyran-4-ylcyclohex-2-en-1-one], the “Phytotox (%) on HORVS” value ([1]; 8.25 g ai/ha) is reported as 78% and the “Phytotox (%) on TRZDU” value ([2]; 8.25 g ai/ha) is reported as 70%.
With CCCC(=NOCC)C1=C(O)CC(C2CCCSC2)CC1=O (racemic) [Compound A5, (±)-2-[1-(ethoxyimino)butyl]-3-hydroxy-5-thian-3-ylcyclohex-2-enone] the “Phytotox (%) on AVEFA” value (Avena fatua; 40 g a.i./ha) was 65% and the “Phytotox (%) on TRZAW” value ([3]; 40 g a.i./ha) was 16%.
For CCCC(=NOCC)C1=C(O)CC(CC(C)SCC)CC1=O (racemic) [Compound A6, (±)-(EZ)-2-(1-ethoxyiminobutyl)-5-[2-(ethylthio)propyl]-3-hydroxycyclohex-2-enone], the “Phytotox (%) on ALOMY” value (Alopecurus myosuroides; 72 g a.i./ha) was 70%, the “Phytotox (%) on PHAMI” value (Phalaris minor; 72 g a.i./ha) was 55% and the “Phytotox (%) on TRZAW” value ([4]; 72 g a.i./ha) was 28%.
For CCOC(=O)C1=NN(c2ccc(Cl)cc2Cl)C(C)(C(=O)OCC)C1 (stereo not drawn) [(B1), ethyl 1-(2,4-dichlorophenyl)-5-(ethoxycarbonyl)-5-methyl-2-pyrazoline-3-carboxylate], the “Phytotox (%) on HORVS” value ([1]; 100 g ai/ha) was 0%, the “Phytotox (%) on ALOMY” value (Alopecurus myosuroides; 11 g a.i./ha) was 0% and the “Phytotox (%) on ALOMY” value (Alopecurus myosuroides; 45 g a.i./ha) was 0%. For the same compound, the “Phytotox (%) on PHAMI” value (Phalaris minor; 11 g a.i./ha) was 0%, the “Phytotox (%) on PHAMI” value (Phalaris minor; 45 g a.i./ha) was 0% and the “Phytotox (%) on AVEFA” value (Avena fatua; 71 g a.i./ha) was 0%. The “Phytotox (%) on TRZAW” value ([4]; 11 g a.i./ha) was 0%, the “Phytotox (%) on TRZAW” value ([4]; 45 g a.i./ha) was 0% and the “Phytotox (%) on TRZDU” value ([2]; 100 g ai/ha) was 0%. For the same compound, the “Phytotox (%) on TRZAW” value ([3]; 71 g a.i./ha) was 0%.
